Molecules are shown by their SMILES. Some results are limits rather than exact numbers.

One experiment has as its target CDK4/Cyclin D1 (Homo sapiens (Human), UniProt P11802). The experiment in a line: CDK4/Cyclin D1 CHEF Assay (AQT0258 peptide). The experiment is classed as biochemical. As to conditions: 200 uM ATP, read-out: CDK4/ CyclinD1 AQT IC50. The text has this: CDK4/Cyclin D1 CHEF Assay
The purpose of CDK4/Cyclin D1 assay is to evaluate the inhibition (% inhibition and IC50 values) of small molecule inhibitors by using a Chelation-Enhance Fluorescence (CHEF) assay. In a CHEF assay, phosphorylation of a peptide substrate results in proportional increase in fluorescence. CHEF kinase assay use peptide substrates containing a synthetic alpha-amino acid with a side chain bearing an 8-hydroxyquinoline derivative (sulfonamido-oxide, Sox). Upon phosphorylation of a nearby serine, threonine or tyrosine and in the presence of Mg(II), the spectral properties of the Sox residue are altered, emitting 485 nm wavelength light when excited with a 360 nm wavelength light source. CDK4/Cyclin D1 catalyzes the phosphoryl transfer to the SOX-labeled substrate peptide AQT0258 from Assayquant Technologies. […] The reaction was initiated with the addition of substrate solution, following a 30-minute pre-incubation of enzyme and inhibitor at 22° C. in the reaction mix. Reactions were allowed to proceed for 3 hrs at 22° C., followed by fluorescence read of the reaction. The IC50 determinations were made from a plot of the fractional velocity as a function of inhibitor concentration fit to the 4 parameters IC50 equation.

The target of another experiment is CDK6/Cyclin D3 (Homo sapiens (Human), UniProt Q00534). The experiment in a line: CDK6/Cyclin D3 ADP-Glo Kinase Assay. The experiment is classed as biochemical. The note with it: 100 uM ATP, read-out: CDK6/ CyclinD3 IC50. The procedure:
CDK6/Cyclin D3 ADP-Glo Kinase Assay
The purpose of the CDK6/Cyclin D3 assay is to evaluate the inhibition (% inhibition and IC50 values) in the presence of small molecule inhibitors by using a Luminescent based ADP-Glo assay. CDK6/Cyclin D3 catalyzes the production of ADP from ATP. ADP-Glo assay monitors ADP producing biochemical reactions. ADP-Glo is performed in 2 steps upon completion of kinase reaction: a combined termination of kinase reaction and depletion of remaining ATP in the first step, and conversion of generated ADP to […] and the newly produced ATP to light output using luciferase/luciferin reaction in the second step. The luminescent signal generated is proportional to the ADP concentration produced and is correlated with the kinase activity CDK6/Cyclin D3 was purchased from Carna. […] The assay was initiated with the addition of ATP-containing substrate solution, following a 30-minute pre-incubation of enzyme and inhibitor at room temperature in the reaction mixture. The reaction was stopped after 90 minutes at room temperature by the addition of 10 uL of ADP-GLO Reagent. After a 90-minute incubation, 20 uL of Kinase Detection Reagent was added. Samples were incubated for 40 minutes, after which plate well luminescence was measured on a Envision microplate reader. The IC50 determinations were made from a plot of the fractional velocity as a function of inhibitor concentration fit to the 4 parameters IC50 equation.

The target of another experiment is CDK1/Cyclin B1 (Homo sapiens (Human), UniProt P06493). The experiment in a line: CDK1/Cyclin B1 ADP-Glo Kinase Assay. The experiment is classed as biochemical. The note with it: ADP-Glo, 80 uM ATP; read-out: CDK1 Cyclin B1 IC50. Here is the method: CDK1/Cyclin B1 ADP-Glo Kinase Assay
CDK1/Cyclin B1, sequence (P06493 whole entry): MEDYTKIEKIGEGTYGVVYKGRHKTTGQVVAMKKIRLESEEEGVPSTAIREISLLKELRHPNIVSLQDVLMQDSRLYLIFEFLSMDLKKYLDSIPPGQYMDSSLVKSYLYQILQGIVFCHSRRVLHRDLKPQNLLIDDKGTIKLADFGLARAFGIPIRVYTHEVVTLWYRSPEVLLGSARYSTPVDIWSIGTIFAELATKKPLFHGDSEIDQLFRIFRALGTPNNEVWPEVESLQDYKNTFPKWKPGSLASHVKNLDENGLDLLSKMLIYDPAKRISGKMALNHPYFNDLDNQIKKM
CDK1/Cyclin B1, sequence (P14635 whole entry partner): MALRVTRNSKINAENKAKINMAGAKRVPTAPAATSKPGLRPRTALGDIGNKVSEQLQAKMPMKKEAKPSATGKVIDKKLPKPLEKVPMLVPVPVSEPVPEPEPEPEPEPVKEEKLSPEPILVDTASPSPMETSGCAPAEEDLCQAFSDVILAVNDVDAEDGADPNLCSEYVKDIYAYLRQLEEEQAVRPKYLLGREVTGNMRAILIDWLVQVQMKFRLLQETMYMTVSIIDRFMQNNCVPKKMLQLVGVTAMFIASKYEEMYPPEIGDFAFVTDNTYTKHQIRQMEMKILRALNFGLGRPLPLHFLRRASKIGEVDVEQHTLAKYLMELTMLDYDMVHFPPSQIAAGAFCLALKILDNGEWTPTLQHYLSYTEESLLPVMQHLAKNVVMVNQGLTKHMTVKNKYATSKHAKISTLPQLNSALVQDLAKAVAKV
(§1) The purpose of CDK1/Cyclin B1 assay is to evaluate the inhibition (% inhibition and IC50 values) of small molecule inhibitors by using a Luminescent based ADP-Glo assay. CDK1/Cyclin B1 catalyzes the production of ADP from ATP. ADP-Glo assay monitors ADP producing biochemical reactions. ADP-Glo is performed in 2 steps upon completion of kinase reaction: a combined termination of kinase reaction and depletion of remaining ATP in the first step, and conversion of generated ADP to ATP and the newly produced ATP to light output using luciferase/luciferin reaction in the second step. The luminescent signal generated is proportional to the ADP concentration produced and is correlated with the kinase activity. CDK1/Cyclin B1 was purchased from Carna (Cat 04-102). […] The assay was initiated with the addition of ATP-containing substrate solution, following a 30-minute pre-incubation of enzyme and inhibitor at room temperature in the reaction mixture. The reaction was stopped after 90 minutes at room temperature by the addition of 10 uL of ADP-GLO Reagent. After a 90 minute incubation, 20 uL of Kinase Detection Reagent was added. Samples were incubated for 40 minutes, after which plate well luminescence was measured on a Envision microplate reader. The IC50 determinations were made from a plot of the fractional velocity as a function of inhibitor concentration fit to the 4 parameters IC50 equation.
(ADP-Glo first removes unused ATP, then detects ADP through luciferase.)

A further experiment has as its target CDK2/Cyclin E1 (Homo sapiens (Human), UniProt P24941). The experiment in a line: CDK2/Cyclin E1 Full length ADP-Glo Kinase Assay. As to conditions: 20 uM ATP, read-out: CDK2/ CyclinE1 IC50. The experiment is classed as biochemical. The procedure: CDK2/Cyclin E1 Full length ADP-Glo Kinase Assay
as §1, with “of CDK2/Cyclin E1” for “of CDK1/Cyclin B1”, “assay. CDK2/Cyclin E1 full length” for “assay. CDK1/Cyclin B1”, “activity. CDK2/Cyclin E1” for “activity. CDK1/Cyclin B1”, “from Eurofins” for “from Carna”, “(Cat 14-475M).” for “(Cat 04-102).”

In a further experiment the test system is MCF-7 cells. The experiment in a line: Cell Growth Inhibition, MCF-7 (CellTiterGlo, 6 days). As to conditions: Homo sapiens, MCF7, 144 h, MCF-7, 6-day treatment. The experiment is classed as cell-based. The source says:
(§2) MCF-7 and OVCAR-3 cells were used to evaluate the anti-proliferation activity of the CDK inhibitors. MCF-7 (ATCC, HTB-22) cells are epithelial cells from a patient with ER+ metastatic adenocarcinoma. OVCAR-3 (ATCC, HTB-161) cells were derived from malignant ascites of a patient with ovarian cancer and are known to have CCNE1 amplification. Both cell lines were maintained in RPMI media supplemented with 10% fetal bovine serum. For cell growth inhibition assay, CDK inhibitors in DMSO solution were dispensed with either Echo 655 (Beckman Coulter) or Tecan D300e (HP) into 384-well plates (Corning #3765) and the 384-well plates were UV-sterilized prior to the assay. The inhibitors were typically tested in the 10-10,000 nM concentration range with half-log serial dilutions. MCF-7 or OVCAR-3 (500 cells/30 μL/well) were added to each well using Multidrop Combi (ThermoFisher) using standard cassettes. The assay plates with cells were cultured at 37° C., 5% CO2 for 6 days. At the end of the 6-day treatment, 30 μL of CellTiterGlo 2.0 (Promega) was added to each well and the luminescent signal was read using CLARIOstar plus (BMG). The percentage of cell growth inhibition (% CGI) was calculated using the following formula 00 CGI=100-100×luminescencesampie/luminescencecontroi. The half maximal inhibitory concentration (IC50) was determined by nonlinear curve fitting (four parameters, variable slope).
For orientation: In ATP-based viability assays light output follows the ATP content of the culture.

The test system of a further experiment is OVCAR-3 cells. The experiment in a line: Cell Growth Inhibition, OVCAR-3 (CellTiterGlo, 6 days). As to conditions: Homo sapiens, 144 h, OVCAR-3, 6-day treatment. It is filed as cell-based.
Excerpt: as §2

CDK4/Cyclin D1, sequence (P11802 whole entry): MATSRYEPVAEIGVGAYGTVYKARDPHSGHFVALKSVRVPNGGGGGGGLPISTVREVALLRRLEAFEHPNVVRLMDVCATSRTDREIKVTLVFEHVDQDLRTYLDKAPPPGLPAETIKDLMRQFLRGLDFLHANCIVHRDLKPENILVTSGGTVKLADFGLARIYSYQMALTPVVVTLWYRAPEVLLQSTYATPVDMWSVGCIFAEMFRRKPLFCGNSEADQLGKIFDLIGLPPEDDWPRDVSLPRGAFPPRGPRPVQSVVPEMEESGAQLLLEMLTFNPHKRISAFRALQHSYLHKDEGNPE
CDK4/Cyclin D1, sequence (P24385 whole entry partner): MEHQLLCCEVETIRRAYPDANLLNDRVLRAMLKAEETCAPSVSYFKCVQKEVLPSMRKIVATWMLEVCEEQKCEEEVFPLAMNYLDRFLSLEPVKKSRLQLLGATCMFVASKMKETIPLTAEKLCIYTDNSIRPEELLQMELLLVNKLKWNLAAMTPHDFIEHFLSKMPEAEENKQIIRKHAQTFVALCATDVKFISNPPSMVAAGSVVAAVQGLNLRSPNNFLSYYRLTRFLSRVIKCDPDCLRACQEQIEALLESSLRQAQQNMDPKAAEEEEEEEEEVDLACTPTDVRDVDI
CDK6/Cyclin D3, sequence (Q00534 whole entry): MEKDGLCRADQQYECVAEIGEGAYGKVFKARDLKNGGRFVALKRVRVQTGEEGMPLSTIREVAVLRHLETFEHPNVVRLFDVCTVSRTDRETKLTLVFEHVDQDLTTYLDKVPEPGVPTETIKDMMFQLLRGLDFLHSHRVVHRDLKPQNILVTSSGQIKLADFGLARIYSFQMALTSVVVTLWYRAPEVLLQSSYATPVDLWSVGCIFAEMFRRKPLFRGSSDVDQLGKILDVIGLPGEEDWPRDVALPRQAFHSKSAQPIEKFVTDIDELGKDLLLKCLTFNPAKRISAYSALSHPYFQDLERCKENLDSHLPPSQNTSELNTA
CDK6/Cyclin D3, sequence (P30281 whole entry partner): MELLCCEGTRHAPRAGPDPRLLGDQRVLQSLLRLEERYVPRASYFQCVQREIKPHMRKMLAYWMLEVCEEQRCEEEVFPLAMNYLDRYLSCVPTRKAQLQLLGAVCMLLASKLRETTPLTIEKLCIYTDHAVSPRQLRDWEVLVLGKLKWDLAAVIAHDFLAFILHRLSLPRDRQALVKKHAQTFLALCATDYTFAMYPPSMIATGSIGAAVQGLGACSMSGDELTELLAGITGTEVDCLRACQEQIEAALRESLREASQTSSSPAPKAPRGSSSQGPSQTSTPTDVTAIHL

On to `Cc1cc2cnc(NC3CCN(S(C)(=O)=O)CC3)nc2c(N2CC3(CN(C)C[C@H]3F)C2)n1` [Compound 104, (S)-8-(8-fluoro-6-methyl-2,6-diazaspiro[3.4]octan-2-yl)-6-methyl-N-(1-(methylsulfonyl)piperidin-4-yl)pyrido[3,4-d]pyrimidin-2-amine], for which the values for the IC50 on CDK4/Cyclin D1 and on CDK6/Cyclin D3 were less than 200 nM and 200 to 500 nM, respectively.

Take `Cc1cc2cnc(NC3CCN(S(=O)(=O)C4CC4)CC3)nc2c(N2CC(C#N)(CCF)C2)n1` [Compound 68, 1-(2-((1-(cyclopropylsulfonyl)piperidin-4-yl)amino)-6-methylpyrido[3,4-d]pyrimidin-8-yl)-3-(2-fluoroethyl)azetidine-3-carbonitrile]: the IC50 is greater than 2000 nM on CDK1/Cyclin B1, less than 200 nM at CDK2/Cyclin E1, 200 to 500 nM at CDK4/Cyclin D1 and 500 to 2000 nM on CDK6/Cyclin D3.

For the compound `Cc1cc2cnc(NC3CCN(S(C)(=O)=O)CC3)nc2c(N2CC3(CN(C)CC3(F)F)C2)n1` [Compound 101, 8-(8,8-difluoro-6-methyl-2,6-diazaspiro[3.4]octan-2-yl)-6-methyl-N-(1-(methylsulfonyl)piperidin-4-yl)pyrido[3,4-d]pyrimidin-2-amine], the IC50 at CDK1/Cyclin B1 was 200 to 500 nM; at CDK2/Cyclin E1, less than 200 nM; on CDK4/Cyclin D1, less than 200 nM; on CDK6/Cyclin D3, less than 200 nM.

With `Cc1cc2cnc(NC3CCN(S(C)(=O)=O)CC3)nc2c(N2CC3(CNCC3F)C2)n1` (centres unmarked) [Compound 98, 8-(8-fluoro-2,6-diazaspiro[3.4]octan-2-yl)-6-methyl-N-(1-(methylsulfonyl)piperidin-4-yl)pyrido[3,4-d]pyrimidin-2-amine], the IC50 is 200 to 500 nM on CDK1/Cyclin B1, less than 200 nM on CDK2/Cyclin E1, less than 200 nM on CDK4/Cyclin D1 and 200 to 500 nM at CDK6/Cyclin D3.

As for `Cc1cc2cnc(NC3CCN(S(C)(=O)=O)CC3)nc2c(C2CC(C)(CO)C2)n1` (centres unmarked) [Compound 69, (1-methyl-3-(6-methyl-2-((1-(methylsulfonyl)piperidin-4-yl)amino)pyrido[3,4-d]pyrimidin-8-yl)cyclobutyl)methanol], the IC50 on CDK1/Cyclin B1, on CDK2/Cyclin E1, on CDK4/Cyclin D1 and at CDK6/Cyclin D3 was less than 200 nM in each case.

Take `Cc1cc2cnc(NC3CCN(S(C)(=O)=O)CC3)nc2c(C2CC3(CNCC3(F)F)C2)n1` (centres unmarked) [Compound 99, 8-(8,8-difluoro-6-azaspiro[3.4]octan-2-yl)-6-methyl-N-(1-(methylsulfonyl)piperidin-4-yl)pyrido[3,4-d]pyrimidin-2-amine]: the IC50 at CDK1/Cyclin B1, on CDK2/Cyclin E1, at CDK4/Cyclin D1 and on CDK6/Cyclin D3 was less than 200 nM throughout.

Consider `Cc1cc2cnc(NC3CCN(S(C)(=O)=O)CC3)nc2c(N2CC3(CNC(=O)C3)C2)n1` [Compound 81, 2-(6-methyl-2-((1-(methylsulfonyl)piperidin-4-yl)amino)pyrido[3,4-d]pyrimidin-8-yl)-2,6-diazaspiro[3.4]octan-7-one], for which the IC50 on CDK1/Cyclin B1 was 200 to 500 nM; at CDK2/Cyclin E1 it was less than 200 nM; on CDK4/Cyclin D1, less than 200 nM; on CDK6/Cyclin D3 it was 200 to 500 nM.

Turning to `Cc1cc2cnc(NC3CCN(S(C)(=O)=O)CC3)nc2c(N2CC3(C2)CN(C2CC2)C3)n1` [Compound 42, 8-(6-cyclopropyl-2,6-diazaspiro[3.3]heptan-2-yl)-6-methyl-N-(1-(methylsulfonyl)piperidin-4-yl)pyrido[3,4-d]pyrimidin-2-amine], the IC50 at CDK1/Cyclin B1 was greater than 2000 nM; with MCF-7 cells it was 500 to 2000 nM; in the experiment with OVCAR-3 cells, 500 to 2000 nM.

On to `Cc1cc2cnc(NC3CCN(S(C)(=O)=O)CC3)nc2c(N2CC3(CN(C)C[C@@H]3F)C2)n1` [Compound 103, (R)-8-(8-fluoro-6-methyl-2,6-diazaspiro[3.4]octan-2-yl)-6-methyl-N-(1-(methylsulfonyl)piperidin-4-yl)pyrido[3,4-d]pyrimidin-2-amine], for which the IC50 on CDK4/Cyclin D1 and at CDK6/Cyclin D3 was less than 200 nM each time.

For the compound `Cc1cc2cnc(NC3CCN(S(C)(=O)=O)CC3)nc2c(C2CC(O)(C3CC3)C2)n1` (centres unmarked) [Example 88, 1-cyclopropyl-3-(6-methyl-2-((1-(methylsulfonyl)piperidin-4-yl)amino)pyrido[3,4-d]pyrimidin-8-yl)cyclobutan-1-ol], the IC50 at CDK1/Cyclin B1 is 200 to 500 nM; at CDK2/Cyclin E1, less than 200 nM; on CDK4/Cyclin D1, less than 200 nM; on CDK6/Cyclin D3, less than 200 nM.

As for `CS(=O)(=O)N1CCC(Nc2ncc3ccnc(N4C[C@H]5c6ccccc6S(=O)(=O)[C@H]5C4)c3n2)CC1` [Compound 16, (3aR,8bR)-2-(2-((1-(methylsulfonyl)piperidin-4-yl)amino)pyrido[3,4-d]pyrimidin-8-yl)-2,3,3a,8b-tetrahydro-1H-benzo[4,5]thieno[2,3-c]pyrrole 4,4-dioxide], the IC50 at CDK1/Cyclin B1 is less than 200 nM; with MCF-7 cells it was 500 to 2000 nM; in the experiment with OVCAR-3 cells, 500 to 2000 nM.
